Key:
[1] = Anti-obesity test using AKR mice (high-fat feed); type: in vivo; conditions: 1 mg per gram of feed in high-fat feed, 7 weeks, AKR/J mice, relative to high-fat feed control group
Text: Anti-Obesity Test Using AKR Mice
Furthermore, this test enables the evaluation of therapeutic effects on diabetes. That is, it is reported that insulinemia can be observed in AKR/J mice when they are fed with a high-fat diet (see Am. J. Physiol. 266 (5 Pt 2), May 1994: R1423-8). It is thus known that insulinemia is strongly associated with diabetes (see, for example, J. Cardiovasc. Nurs. 16 (2), January 2002: 17-23). Therefore, this test can verify the therapeutic effects of the compounds of the present invention, used as test compounds, on diabetes.
For rat feed, powdered CRF-1 (Charles River Formula 1, manufactured by Oriental Yeast, Co., Ltd.) was used as normal feed. As high-fat feed, that prepared by blending CRF-1 with 18% safflower oil (Oriental Yeast, Co., Ltd.) was used.
Test substances were blended with the high-fat feed in an amount of 1 mg per gram of CRF-1.
AKR/J mice (from CLEA Japan, Inc.) were purchased at the age of 4 weeks. They were roughly divided into 2 groups according to body weight when the mice reached 5 weeks old. During this period, all mice were given the normal feed.
Subsequently, the mice of one group (8 mice) continued to be fed with the normal feed (normal feed group). The mice of the other group (8×(the number of the test substances+1) mice) were given the high-fat feed (high-fat feed group).
The body weight of the mice of each group was measured daily. […] These mice were further reared for 7 weeks (“test substances+high-fat feed groups”; n=8 per type of test substance). Specifically, the administration of the test substances was continued for 7 weeks. A group of mice to which high-fat feed containing no test substance was continued to be given was used as a control (high-fat feed control group; n=8).
Four hours after the feeding on the last day of the 7-week test (the last day of the test), the body weight of the mice of the “test substances+high fat feed groups” was measured. Blood was collected from the abdominal aorta of the mice using a heparinized syringe, and the leptin and insulin levels in the plasma were measured using an Elisa kit (produced by Morinaga). The mice of the other groups (normal feed group and high-fat feed control group) were reared till the last day of the test as above, and 4 hours after the last feeding on the last day of the test the measurements were performed according to the same procedures.
The average values of the test results (body weight, leptin level, and insulin level) of the test substances+high-fat feed groups to which the compounds prepared in Examples (Examples 10 and 58) were used as test substances (hereinbelow referred to as the “Example Compound 10-mixed high-fat feed group” and “Example Compound 58-mixed high-fat feed group”) were compared with the respective average values (standard values) of the results obtained from the mice of the high-fat control group to obtain the variations (differences). The differences were expressed as percentages in relation to the standard values. The values thus calculated were referred to as “weight change (%)”, “leptin level change (%)”, and “insulin level change (%)”. In the table below, the symbols “−” (minus) indicate that the differences are negative relative to the standard values.

LPL = assay: Test for LPL activity-increasing effect in normal rats (skeletal muscle LPL activity); type: in vivo; conditions: every day for 1 week, SD rats, soleus muscle, 4 h after administration
Procedure: Test for LPL Activity-Increasing Effect in Normal Rats
6-week-old SD rats (purchased from Charles River Japan) were used as subjects. The rats were divided into groups according to body weight at the age of 5 weeks. The rats in each test group were orally administered with a 5% gum arabic suspension in an amount of 5 ml/kg of body weight, the suspension containing the test compound of the invention in such an amount that the dose of the compound of the invention became 30 mg/kg of body weight in one group and 100 mg/kg of body weight in another group. The rats in a control group were orally administered with a 5% gum arabic suspension (not containing the test compound of the invention) in an amount of 5 ml/kg of body weight. Each sample suspension was orally administered every day at a specific time of day for 1 week starting when the rats reached the age of 6 weeks.
Four hours after the administration of the sample suspension, skeletal muscle tissues of the rats were collected, then freeze-clamped and stored under liquid nitrogen. LPL activity in the skeletal muscle tissues was measured by the following method.
The soleus muscle was homogenized in a chilled solution of 0.05 mol/L NH4OH—NH4Cl buffer (pH 8.5) containing 0.5 U/mL heparin at 1 mL/100 mg of tissue wet weight. After standing on ice for 60 min with vigorous mixing at intervals of 15 min, the homogenate was centrifuged at 3000 rpm and 4° C. for 10 min and the supernatant was separated.
The substrate solution was prepared by mixing 2 μCi of glycerol tri[1-^14C]oleate, 0.133 g of unlabeled triolein, 0.9 mL of 1% Triton X-100, and 0.9 mL of 4% bovine serum albumin. in 0.2 mol/L Tris-HCl buffer (pH 8.6) and 10.2 mL of 0.2 mol/L Tris-HCl buffer (pH 8.6). The mixture was emulsified by sonication on ice for 3 min.
In a glass test tube, 0.1 mL of the tissue extract, 0.05 mL of heat-inactivated rat serum and 0.15 mL of 4% bovine serum albumin in 0.2 mol/L Tris-HCl buffer (pH 7.4) were mixed. Enzyme reaction was started by adding 0.2 mL of the substrate solution and was carried out for 30 min. at 37° C.
The reaction was stopped by addition of 2 mL of 1.5 mol/L H2SO4/2-propanol (1:40, v/v), and 1 mL of distilled water and 3 mL of hexane were added into the test tube. After vigorously shaking for 10 min. at room temperature, the test tube was centrifuged for 10 min. at 3000 rpm.
The upper layer (3.5 mL) was collected in a new test tube and mixed with 1 mL of 0.1 mol/L KOH.
The test tube was vigorously shaken for 10 min. at room temperature and then centrifuged for 10 min. at 3000 rpm.
After removing the upper layer, 1 mL of the lower layer (water phase) was transferred into a vial for counting, neutralized with 50 μL of 1.3 mol/L HCl and mixed with 4 mL of scintillator. The radioactivity was measured using a liquid scintillation counter.
The LPL activity increase (%) was calculated from the measured values of LPL activity in the control group and test groups according to the following formula: LPL activity increase (%)=(Test group average value)/(Control group average value)×100−100

COc1cc(-c2cn3ccccc3n2)ccc1OCc1ccc(Cl)cc1 [Example 10]
Weight Change (%) [1]: −15% | Insulin level change (%) ([1]; plasma): −54% | Leptin level change (%) ([1]; plasma): −68% | Increase of skeletal muscle LPL activity compared to control (%) (LPL; 30 mg/kg oral): 22% | Increase of skeletal muscle LPL activity compared to control (%) (LPL; 100 mg/kg oral): 55% | melting point: 141 to 143 °C

— patent US8895599B2, “Lipoprotein lipase-activating compositions comprising benzene derivates” (Otsuka Pharmaceutical Factory, Inc., priority 2008, dated 2014)
